Results as given in ChEMBL document CHEMBL6182858, “Dichloromethyl-Containing Derivatives from Streptomyces agglomeratus 5-2-6, a Soil Bacterium Isolated from the Qinghai-Tibet Plateau” (J Nat Prod, 2025).

test system: Bacillus thuringiensis; assay: Antibacterial activity against Bacillus thuringiensis assessed as inhibition of bacterial growth by agar plate method; assay type: functional, organism-based; call rule not given here

Row | SMILES | Activity
1 | CC[C@@H](O)/C(C)=C/[C@@H](O)c1cc(C(Cl)Cl)cc(=O)o1 | Not active; Detectable Activity Not Observed
2 | CC[C@@H](O)[C@@](C)(O)/C=C/C=C\[C@H](O)C(Cl)Cl | Not active; Detectable Activity Not Observed
3 | CC[C@H](O)/C(C)=C/[C@@H](O)c1cc(C(Cl)Cl)cc(=O)o1 | Not active; Detectable Activity Not Observed
4 | CC/C=C(\C)[C@@H](O)[C@@H](O)C1=CC(=O)/C(=C/C(Cl)Cl)O1 | Moderate_effect
5 | CC/C=C(\C)[C@@H](O)[C@@H](O)C1=CC(=O)/C(=C\C(Cl)Cl)O1 | Moderate_effect
6 | CC[C@@H](O)[C@](C)(O)/C=C/C=C\[C@H](O)C(Cl)Cl | Not active; Detectable Activity Not Observed
7 | CC/C=C(\C)[C@@H](O)[C@@H](O)c1cc(C(Cl)Cl)cc(=O)o1 | Not active; Detectable Activity Not Observed
8 | O=c1cc(C(Cl)Cl)cc(CO)o1 | Not active; Detectable Activity Not Observed
